Reference: US11780845B2 (Relay Therapeutics, Inc., priority 2019, dated 2023)

Target: FGFR2 (Homo sapiens (Human), UniProt P21802)
Experiment: FGFR2 Biochemical Caliper Assay
Method: Compounds of the present invention were also tested in a FGFR2 Biochemical Caliper Assay. Compounds were prepared in 10 mM DMSO solution and serially diluted into 11 concentrations by 3-fold dilution. […] 5 uL of ATP solution (100 uM) was added to start the reaction and the plate was incubated for 90 minutes, then 70 uL of stopping buffer (0.5M EDTA) was added to terminate the reaction. Each well was analyzed using EZ reader.

Sequence of FGFR2 (P21802 22-821): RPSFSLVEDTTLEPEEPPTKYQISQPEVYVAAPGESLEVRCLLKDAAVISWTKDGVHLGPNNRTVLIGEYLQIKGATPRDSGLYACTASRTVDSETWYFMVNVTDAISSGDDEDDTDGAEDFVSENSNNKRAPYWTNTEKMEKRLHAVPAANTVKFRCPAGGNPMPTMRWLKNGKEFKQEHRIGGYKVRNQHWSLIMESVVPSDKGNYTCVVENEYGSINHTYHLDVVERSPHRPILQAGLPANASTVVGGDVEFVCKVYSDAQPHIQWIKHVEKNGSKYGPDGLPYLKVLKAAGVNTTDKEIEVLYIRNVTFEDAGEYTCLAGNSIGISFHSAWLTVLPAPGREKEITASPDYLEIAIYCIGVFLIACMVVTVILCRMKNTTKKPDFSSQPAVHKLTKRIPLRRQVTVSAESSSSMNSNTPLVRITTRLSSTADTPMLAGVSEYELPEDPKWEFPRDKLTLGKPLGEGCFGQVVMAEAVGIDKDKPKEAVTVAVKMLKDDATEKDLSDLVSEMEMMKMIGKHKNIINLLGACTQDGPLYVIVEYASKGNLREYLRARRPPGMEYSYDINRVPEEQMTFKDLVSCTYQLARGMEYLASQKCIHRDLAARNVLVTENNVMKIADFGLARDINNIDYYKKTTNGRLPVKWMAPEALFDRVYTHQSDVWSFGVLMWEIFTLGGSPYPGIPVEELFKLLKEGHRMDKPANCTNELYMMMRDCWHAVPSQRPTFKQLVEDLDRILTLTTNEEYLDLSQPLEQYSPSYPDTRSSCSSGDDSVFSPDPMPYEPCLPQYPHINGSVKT

| IC50 | Compound |
| --- | --- |
| 1000 to 100000 nM | C=C(C)C(=O)Nc1ccc(-c2c(-c3cnc(Oc4cccc(C)n4)nc3)c3c(N)ncnc3n2C)cc1 [Example 483] |
| 1000 to 100000 nM | C=C(C)C(=O)Nc1ccc(-c2c(-c3ccc(C(=O)N4CCCC4)cc3)c3c(N)ncnc3n2C)c(CN2CCOCC2)c1 [Example 486] |
| 1000 to 100000 nM | C=C(C)C(=O)Nc1ccc(-c2c(-c3ccn(Cc4cccc(C)n4)c(=O)c3)c3c(N)ncnc3n2C)cc1 [Example 488] |
| 250 to 1000 nM | C=C(C)C(=O)Nc1ccc(-c2c(-c3ccc(C(=O)N(C)CC4COC4)cc3)c3c(N)ncnc3n2C)c(F)c1 [Example 489] |
| 1000 to 100000 nM | C=C(C)C(=O)Nc1ccc(-c2c(-c3ccc(Oc4nccc(C)n4)c(OCC)c3)c3c(N)ncnc3n2C)cc1 [Example 491] |
| 1000 to 100000 nM | Cn1c(-c2ccc(C#N)nc2)c(-c2ccc(C(=O)N3CCCC3)cc2)c2c(N)ncnc21 [Example 493] |
| 1000 to 100000 nM | C=C(C)C(=O)Nc1ccc(-c2c(-c3ccc(Oc4nccc(C)n4)c(COC)c3)c3c(N)ncnc3n2C)cc1 [Example 501] |
| 1000 to 100000 nM | C=C(C)C(=O)Nc1ccc(-c2c(-c3ccc(Oc4nccc(C)n4)c(N(C)C)c3)c3c(N)ncnc3n2C)cc1 [Example 504] |
| < 100 nM | C=C(C)C(=O)Nc1ccc(-c2c(-c3ccc(C(=O)N4CCCC4)cc3)c3c(N)ncnc3n2C)c(CC)c1 [Example 516] |
| 250 to 1000 nM | C=C(C)C(=O)Nc1ccc(-c2c(-c3ccc(C(=O)N4CCCC4)cc3)c3c(N)ncnc3n2C)c(CC)c1 [Example 517] |
| < 100 nM | C=C(C)C(=O)Nc1ccc(-c2c(-c3ccc(C(=O)N4CCCC4)cc3)c3c(N)ncnc3n2C)c(C2CC2)c1 [Example 518] |
| 1000 to 100000 nM | C=C(C)C(=O)Nc1ccc(-c2c(-c3ccc(Oc4nccc(C)n4)c(F)c3)c3c(N)ncnc3n2C)c(C(=O)N(C)C)c1 [Example 519] |
| 1000 to 100000 nM | Cn1c(-c2ccc(NC(=O)C3=CCCC3)cc2)c(-c2ccc(C(=O)N3CCCC3)cc2)c2c(N)ncnc21 [Example 523] |
| 1000 to 100000 nM | Cn1c(-c2ccc(NC(=O)C=C3CCC3)cc2)c(-c2ccc(C(=O)N3CCCC3)cc2)c2c(N)ncnc21 [Example 525] |
| < 100 nM | C=C(C)C(=O)Nc1ccc(-c2c(-c3ccc(Oc4nccc(C)n4)c(F)c3)c3c(N)ncnc3n2C2CCOC2)cc1 (stereo not drawn) [Example 536] |
| 1000 to 100000 nM | Cn1c(-c2ccc(N3CCC=CC3=O)cc2)c(-c2ccc(C(=O)N3CCCC3)cc2)c2c(N)ncnc21 [Example 540] |
| 1000 to 100000 nM | Cn1c(-c2ccc(NC(=O)CC3=CCCC3)cc2)c(-c2ccc(C(=O)N3CCCC3)cc2)c2c(N)ncnc21 [Example 542] |
| 1000 to 100000 nM | Cn1c(-c2ccc(N3CCC=CS3(=O)=O)cc2)c(-c2ccc(C(=O)N3CCCC3)cc2)c2c(N)ncnc21 [Example 544] |
| 1000 to 100000 nM | Cn1c(-c2ccc(NC(=O)C=C3CCCC3)cc2)c(-c2ccc(C(=O)N3CCCC3)cc2)c2c(N)ncnc21 [Example 545] |
| 250 to 1000 nM | C=C(C)C(=O)Nc1ccc(-c2c(-c3ccc(C(=O)N4CC5CC4(CO)C5)cc3)c3c(N)ncnc3n2C)cc1 [Example 547] |
| < 100 nM | C=C(C)C(=O)Nc1ccc(-c2c(-c3ccc(C(=O)N4CC5CC4(C)C5)cc3)c3c(N)ncnc3n2C)cc1 [Example 548] |
| 250 to 1000 nM | C=C(C)C(=O)Nc1ccc(-c2c(C3=CCC(Oc4ccn(C)n4)CC3)c3c(N)ncnc3n2C)cc1 (stereo not drawn) [Example 551] |
| 250 to 1000 nM | C/C(=C\CN(C)C)C(=O)Nc1ccc(-c2c(-c3ccc(C(=O)N4CCCC4)cc3)c3c(N)ncnc3n2C)cc1 [Example 553] |
| < 100 nM | C=C(C)C(=O)Nc1ccc(-c2c(-c3ccc(Oc4nccc(C)n4)c(F)c3)c3c(N)ncnc3n2C)c(CN(C)C)c1 [Example 555] |
| 250 to 1000 nM | Cn1c(-c2ccc(N3CC=CS3(=O)=O)cc2)c(-c2ccc(C(=O)N3CCCC3)cc2)c2c(N)ncnc21 [Example 556] |
| 1000 to 100000 nM | Cn1c(-c2ccc(N3CC=CC3=O)cc2)c(-c2ccc(C(=O)N3CCCC3)cc2)c2c(N)ncnc21 [Example 557] |
| 250 to 1000 nM | CC(Cl)C(=O)Nc1ccc(-c2c(-c3ccc(C(=O)N4CCCC4)cc3)c3c(N)ncnc3n2C)cc1 (stereo not drawn) [Example 561] |
